Reference: patent US20160199393A1, “METHODS OF TREATING BRAIN ISCHEMIA OR HYPOXIA” (China Medical University, priority 2015, published 2016)

Tests used:
neurons = experiment: Annexin V flow cytometric apoptosis assay after OGDR, neurons; format: cell-based, mouse; conditions: WT cortical cells, 24 h after reperfusion, 10 μM (SAS 500 μM)
Experimental: (§1) Annexin V staining was performed to determine cell apoptosis using the Annexin V-FITC Apoptosis Detection Kit (Sigma-Aldrich) for 10 min at room temperature according to the manufacturers instructions, and then flow cytometric analysis was performed.
(§2) The three-color staining flow cytometric assay using allophycocyanin-microtubule-associated protein 2 (MAP2) for neuron staining, phycoerythrin (PE)-GFAP for astrocyte staining and FITC-annexin V for apoptotic cell staining was performed to count the numbers of neurons, astrocytes, and apoptotic cells. FIGS. 21A and […] show the results of apoptosis in wild type (WT) and xCT^−/− cortical cells treated with OGDR at 24 h after reperfusion. *P<0.01 compared to WT without OGDR, Student's t-test. ^#P<0.01 compared to WT with OGDR, Student's t-test. From FIGS. 21A and 21B it was observed that that smaller numbers of apoptotic cells were present in xCT^−/− neurons and astrocytes after OGDR treatment.

WT cortical cells = experiment: Lactate dehydrogenase (LDH) level in WT cortical cells after OGD/OGDR; format: cell-based, mouse; conditions: OGDR, 24 h after reperfusion, 10 μM (SAS 500 μM)
Experimental: (§3) Primary cortical cells were prepared from cerebral cortices of wild-type C57BL/6J or homozygote xCT^−/− mouse embryos in embryonic day 17 as previously described with modification (Goldberg M P, Choi D W. Combined oxygen and glucose deprivation in cortical cell culture: calcium-dependent and calcium-independent mechanisms of neuronal injury. The Journal of neuroscience: the official journal of the Society for Neuroscience, 1993; 13(8):3510-24, which is incorporated here by reference).
The LDH assay was carried out at 24 hours after reperfusion. *P<0.01 compared to drugs-untreated cells (Un), one-way ANOVA. Error bars denote the standard deviation among triplicate experiments.

NMDAR = conditions: WT cortical cells, OGDR, 24 h after reperfusion; 10 μM (SAS 500 μM)
astrocytes = experiment: Annexin V flow cytometric apoptosis assay after OGDR, astrocytes; format: cell-based, mouse; conditions: WT cortical cells, 24 h after reperfusion, 10 μM (SAS 500 μM)
Experimental: as §1, §2

cortical infarct [1] = experiment: TTC staining infarct volume in rats with CIR; format: in vivo, rat; conditions: 30 mg/kg ip for 3 days, compared to vehicle
system xc− = target: T1, system xc− (Mus musculus, UniProt Q9WTR6); experiment: Extracellular glutamate content in WT cortical cells exposed to OGDR; format: cell-based; conditions: 24 h after reperfusion, 10 μM (SAS 500 μM)
T1 construct: endogenous in cells; host or cells: primary cortical cells from E17 wild-type C57BL/6J mouse embryos, exposed to OGDR
T1 sequence (Q9WTR6 1-502): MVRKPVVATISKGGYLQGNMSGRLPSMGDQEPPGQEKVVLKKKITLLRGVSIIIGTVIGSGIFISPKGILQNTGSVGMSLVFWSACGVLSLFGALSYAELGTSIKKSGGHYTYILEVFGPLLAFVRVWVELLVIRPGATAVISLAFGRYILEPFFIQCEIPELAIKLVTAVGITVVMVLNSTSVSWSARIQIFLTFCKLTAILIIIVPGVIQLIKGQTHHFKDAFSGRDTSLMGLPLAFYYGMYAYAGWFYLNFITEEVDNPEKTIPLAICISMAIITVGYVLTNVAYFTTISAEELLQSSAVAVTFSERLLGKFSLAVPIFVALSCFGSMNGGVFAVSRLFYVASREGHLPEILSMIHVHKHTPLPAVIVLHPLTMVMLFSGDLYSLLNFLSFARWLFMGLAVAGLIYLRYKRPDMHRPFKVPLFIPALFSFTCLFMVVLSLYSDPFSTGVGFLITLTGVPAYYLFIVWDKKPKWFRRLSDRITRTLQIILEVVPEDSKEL
T1 sequence (P10852 1-526 partner): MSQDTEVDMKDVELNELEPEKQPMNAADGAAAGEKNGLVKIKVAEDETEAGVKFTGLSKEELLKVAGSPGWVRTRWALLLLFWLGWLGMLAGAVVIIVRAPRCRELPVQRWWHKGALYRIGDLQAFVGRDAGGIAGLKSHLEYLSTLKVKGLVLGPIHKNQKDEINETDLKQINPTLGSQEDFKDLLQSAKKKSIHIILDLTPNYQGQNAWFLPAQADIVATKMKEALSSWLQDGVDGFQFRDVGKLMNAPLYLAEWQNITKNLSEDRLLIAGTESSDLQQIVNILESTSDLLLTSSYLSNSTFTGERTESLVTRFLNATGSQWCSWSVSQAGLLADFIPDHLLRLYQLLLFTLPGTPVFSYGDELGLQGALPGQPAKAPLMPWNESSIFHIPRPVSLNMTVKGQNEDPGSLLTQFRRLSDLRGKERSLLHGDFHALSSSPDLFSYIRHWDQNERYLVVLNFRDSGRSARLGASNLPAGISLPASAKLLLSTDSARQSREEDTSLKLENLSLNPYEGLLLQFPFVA
Experimental: as §3

ischemic cortex = experiment: Microdialysis of extracellular glutamate in ischemic cortex of rats with CIR; format: in vivo, rat
Experimental: (§4) Eight to ten-week-old male adult male Sprague-Dawley rats, C57BL/6J mice and xCT^−/− mice were anesthetized with 1.5% isoflurane in oxygen, allowed breathing spontaneously, and body temperature was maintained at 37° C. with a heat lamp during surgery for right middle cerebral artery ligation and bilateral common carotid artery clamping as previously described (Chen S T, Hsu C Y, Hogan E L, Maricq H, Balentine J D. A model of focal ischemic stroke in the rat: reproducible extensive cortical infarction. Stroke; a journal of cerebral circulation. 1986; 17(4):738-43, which is incorporated here by reference). Animals were subjected to transient cerebral ischemia for 90 min in rats and 2 h in mice.
Samples were diluted in 20 mM borate buffer at pH 9.0 and were derivatized for 1 min with N-tert-butyloxycarbonyl-L-cysteine and o-phthaldialdehyde. Samples then were separated in a 5-mm C18 reverse-phase column (220×4.6 mm) Sheri-5 (Brownlee), and glutamate was monitored by fluorescence (334 nm excitation and 433 nm emission) using an RF-10AXL fluorescence detector (Shimadzu). Standards of glutamate were assayed before and after the dialysis samples. […]

TUNEL-positive cells = experiment: TUNEL histochemistry in the ipsilateral cerebral hemisphere of rats with CIR; format: in vivo, rat
Experimental: Animals were subjected to transient cerebral ischemia for 90 min in rats and 2 h in mice.
To detect apoptosis, a TUNEL staining Kit (DeadEnd Fluorimetric TUNEL system; Promega) was used for the TUNEL assay (Shyu W C, Lin S Z, Chiang M F, Chen D C, Su C Y, Wang H J, et al. Secretoneurin promotes neuroprotection and neuronal plasticity via the Jak2/Stat3 pathway in murine models of stroke. The Journal of clinical investigation. 2008; 118(1):133-48, which is incorporated by reference).
(§5) Rats were treated intraperitoneal injection with either vehicle, SAS (5 mg/kg/day) or the mixture of sulfapyridine (5-ASA, 3.12 mg/kg/day) and salicylate (SP, 1.72 mg/kg) for 3 days after brain ischemia.

rats with CIR = experiment: Neurological behavioral measurements in rats with CIR; format: in vivo, rat
Experimental: as §4
Behavioral assessments were performed 3 days before cerebral ischemia and 72 hours after cerebral ischemia. The tests measured body asymmetry and locomotor activity. Furthermore, grip strength was analyzed using Grip Strength Meter (TSE-Systems) as previously described with modification. In brief, the percentage of improvement in grip strength was measured on each fore limb separately and was calculated as the ratio between mean strength of 20 pulls of the side contralateral to the ischemia and the ipsilateral side. In addition, the ratio of grip strength after treatment to baseline was also calculated, and changes were presented as percent of baseline (Shyu W C, Lin S Z, Chiang M F, Chen D C, Su C Y, Wang H J, et al. Secretoneurin promotes neuroprotection and neuronal plasticity via the Jak2/Stat3 pathway in murine models of stroke. The Journal of clinical investigation. 2068; 118(1):133-48, which is incorporated by reference).
as §5

cortical infarct [2] = experiment: MRI infarct volume in rats with CIR; format: in vivo, rat; conditions: day 28 after reperfusion
Experimental: as §4
MRI was performed on rats under anesthesia in a General Electric imaging system (R4; GE) at 3.0 T. Brains were scanned in 6-8 coronal image slices, each 2 mm thick without any gaps. […] The area of infarct was drawn manually from slice to slice, and the volume was then calculated by internal volume analysis software (Voxtool; GE) (Shyu W C, Lin S Z, Chiang M E, Chen D C, Su C Y, Wang H J, et al. Secretoneurin promotes neuroprotection and neuronal plasticity via the Jak2/Stat3 pathway in murine models of stroke. The Journal of clinical investigation. 2008; 118(1):133-48, which is incorporated by reference). […]

Row | Compound | apoptosis in neurons (neurons) | LDH levels (WT cortical cells) | hyperfunction of NMDAR (binding radioactivity of 18F-FSAG) (NMDAR) | apoptosis in astrocytes (astrocytes) | cortical infarct volume (TTC staining) (cortical infarct [1]) | OGDR-induced glutamate release (extracellular glutamate content) (system xc−) | extracellular glutamate content in ischemic cortex (ischemic cortex; 5 mg/kg/day BID for 3 days, 4 to 72 h after reperfusion) | suppression of glutamate efflux in ischemic cortex at different dosages (ischemic cortex; different dosages) | inhibition of TUNEL-positive cells at different dosages (TUNEL-positive cells; different dosages) | number of TUNEL-positive cells (TUNEL-positive cells; ischemic penumbra, 24 h after reperfusion) | locomotor activity (number of vertical movements, vertical activity, vertical movement time) (rats with CIR; between 7 and 28 days after CIR, compared with controls) | improvement in grip strength (rats with CIR; day 28 after reperfusion, compared with control groups) | body asymmetry (rats with CIR; days 7 to 28, compared with control rats) | cortical infarct size (MRI) (cortical infarct [2])
1 | CNC(=O)c1cc(Oc2ccc(NC(=O)Nc3ccc(Cl)c(C(F)(F)F)c3)cc2)ccn1 [sorafenib] | inhibited | inhibited | inhibited | inhibited | significantly smaller | inhibited |  |  |  |  |  |  |  | 
2 | O=C(O)c1cc(/N=N/c2ccc(S(=O)(=O)Nc3ccccn3)cc2)ccc1O [sulfasalazine] | inhibited | inhibited | inhibited | inhibited |  | inhibited | reduction | inhibited CIR-induced glutamate release in a dose-dependent manner | decreased CIR-induced apoptosis in a dose-dependent manner | significantly reduced | significantly higher | higher percentage of improvement | significantly reduced | remarkable size reductions
